Results published in patent US4125716A, “Methoxymethyl esters of substituted imidazolidinyl-3-methyl-3-cephem-4-carboxylic acids” (Bristol-Myers Company, priority 1977, dated 1978).
In brackets after ≈: the same amount, converted by molar mass. Like-named read-outs stand apart in the source and are kept apart here.

How the values were obtained:
[1] = test system: Enterobacter cloacae A9659; assay: MIC, tube dilution technique, Enterobacter cloacae A9659; assay type: cell-based; conditions: overnight, Nutrient Broth, 37° C., read-out: Minimum Inhibitory Concentration
Excerpt: (§1) The methoxymethyl esters of hetacephalexin and hetacefadroxil are the compounds of Formula I wherein R^1 is hydrogen and hydroxy, respectively.

Proteus morganii A15153 = assay: MIC, tube dilution technique, Proteus morganii A15153; assay type: cell-based; conditions: Morganella morganii, overnight, Nutrient Broth, 37° C., read-out: Minimum Inhibitory Concentration
Excerpt: as §1

Escherichia coli A15119 = assay: MIC, tube dilution technique, Escherichia coli A15119; assay type: cell-based
Excerpt: (§2) […]. The methoxymethyl esters of hetacephalexin and hetacefadroxil are the compounds of Formula I wherein R^1 is hydrogen and hydroxy, respectively.

[2] = cited from earlier work
[3] = test system: Streptococus pneumoniae A9585; assay: MIC, tube dilution technique, Streptococcus pneumoniae A9585; assay type: cell-based; conditions: overnight, Nutrient Broth, 37° C., read-out: Minimum Inhibitory Concentration
Excerpt: as §1

[4] = test system: Streptococcus pyogenes A9604; assay: MIC, tube dilution technique, Streptococcus pyogenes A9604; assay type: cell-based
Excerpt: as §2

[5] = test system: Klebsiella pneumoniae A15130; assay: MIC, tube dilution technique, Klebsiella pneumoniae A15130; assay type: cell-based
Excerpt: as §2

[6] = test system: Serratia marcescens A20019; assay: MIC, tube dilution technique, Serratia marcescens A20019; assay type: cell-based; conditions: overnight, Nutrient Broth, 37° C., read-out: Minimum Inhibitory Concentration
Excerpt: as §1

[7] = test system: Staphylococcus aureus A9537; assay: MIC, tube dilution technique, Staphylococcus aureus A9537; assay type: cell-based
Excerpt: as §2

[8] = test system: Enterobacter cloacae A9656; assay: MIC, tube dilution technique, Enterobacter cloacae A9656; assay type: cell-based; conditions: overnight, Nutrient Broth, 37° C., read-out: Minimum Inhibitory Concentration
Excerpt: as §1

Proteus mirabilis A9900 = assay: MIC, tube dilution technique, Proteus mirabilis A9900; assay type: cell-based
Excerpt: as §2

[9] = test system: Pseudomonas aeruginosa A9843A; assay: MIC, tube dilution technique, Pseudomonas aeruginosa A9843A; assay type: cell-based; conditions: read-out: Minimum Inhibitory Concentration
Excerpt: as §2

in vivo [10] = conditions: rat, po, 200 mg/kg; for Kp at 0.5 h / Kp at 1 h / Kp at 2 h / Kp at […]: Brain to Plasma Ratio
Experimental: (§3) The dosing solutions were stored in an ice bath, used within 6 hours of preparation and an aliquot of each solution was retained for assay.
(§4) Rats in each treatment group were administered 1 ml of dosing solution per 100 g of body weight. The four additional control rats were administered a glycerol formal:deionized water (1:1) solution (1ml/100 g b.w.) to serve as a vehicle control group.
(§5) Four rats from each treatment group and one rat from the vehicle control group were killed 15, 30, 60 and 120 minutes after dosing. The rats were killed by exsanguination at the bifurcation of the femoral arteries while they were under light ether anesthesia. Approximately 10 ml of blood were obtained from each rat in 10 ml disposable syringes which had been previously rinsed with a 1% Na heparin in 0.9% NaCl solution. Each sample was immediately transferred from the syringe, after removing the needle, to a heparinized vacutainer tube, gently inverted a few times to mix the anticoagulant and centrifuged at 3000 rpm for 5 minutes in a refrigerated centrifuge at 4° C. to separate plasma. Plasma was transferred to a polypropylene snap-cap tube and stored at -20° C. until assayed. Lungs and brains were removed immediately after exsanguination, rinsed with ice-cold 0.9% NaCl solution, blotted dry with gauze, wrapped separately in pieces of aluminum foil, placed in dry ice for quick freezing and stored at -20° C. until assayed.
(§6) Plasma samples were diluted with an equal volume of acetone and further diluted with a 1:1 mixture of acetone:1% pH6 phosphate buffer to a concentration approximating the midpoint of the standard curve. Tissues were homogenized with 2 volumes of 1% pH 6 phosphate buffer in a glass homogenizer with a motor driven teflon pestle. Equal volumes of homogenate and acetone were mixed and, following centrifugation, the supernatant was diluted for assay in a manner similar to plasma. Dosing solutions were diluted with acetone:1% pH 6 phosphate buffer (1:1) and assayed similar to plasma.

[11] = Antibiotic concentrations of dosing solutions retained for assay (cup-plate assay, CHCl3 extract); assay type: physicochemical; conditions: pH 7.4 phosphate buffer / CHCl3
Experimental: as §3
Dosing solutions were diluted with acetone:1% pH 6 phosphate buffer (1:1) and assayed similar to plasma.

in vivo [12] = conditions: rat, po, 200 mg/kg, Lung Level
Experimental: as §3, §4, §5, §6

[13] = Tissue levels and tissue penetration following oral administration; assay type: in vivo, male Sprague-Dawley rats; conditions: rat
Experimental: as §3, §4
Four rats from each treatment group and one rat from the vehicle control group were killed 15, 30, 60 and 120 minutes after dosing. The rats were killed by exsanguination at the bifurcation of the femoral arteries while they were under light ether anesthesia. Approximately 10 ml of blood were obtained from each rat in 10 ml disposable syringes which had been previously rinsed with a 1% Na heparin in 0.9% NaCl solution. Each sample was immediately transferred from the syringe, after removing the needle, to a heparinized vacutainer tube, gently inverted a few times to mix the anticoagulant and centrifuged at 3000 rpm for 5 minutes in a refrigerated centrifuge at 4° C. to separate plasma. Plasma was transferred to a polypropylene snap-cap tube and stored at -20° C. until assayed. […]

in vivo [14] = conditions: rat, po, 200 mg/kg, Brain Level
Experimental: as §3, §4, §5, §6

[15] = rat, in vivo, po, 200 mg/kg
Experimental: as §3, §4, §5, §6

in vivo [16] = conditions: rat, po, 200 mg/kg
Experimental: as §3, §4, §5, §6

in vivo [17] = conditions: rat, po, 200 mg/kg; for concentration at 0.5 h / concentration at 1 h / concentration at 2 h: Plasma Level
Experimental: as §3, §4, §5, §6

[18] = rat, in vivo, po, 200 mg/kg; remark: listed apart in the source
Experimental: as §3, §4, §5, §6

[19] = Escherichia coli A15119, overnight, Nutrient Broth, 37° C., read-out: Minimum Inhibitory Concentration
[20] = Streptococcus pyogenes A9604, overnight, Nutrient Broth, 37° C., read-out: Minimum Inhibitory Concentration
[21] = Klebsiella pneumoniae A15130, overnight, Nutrient Broth, 37° C., read-out: Minimum Inhibitory Concentration
[22] = A9537, Staph aureus + 50% serum, A9537, overnight, Nutrient Broth, 37° C., read-out: Minimum Inhibitory Concentration
[23] = A9537, Staphylococcus aureus A9537, overnight, Nutrient Broth, 37° C., read-out: Minimum Inhibitory Concentration
[24] = Proteus mirabilis A9900, overnight, Nutrient Broth, 37° C., read-out: Minimum Inhibitory Concentration

## CC1=C(C(=O)O)N2C(=O)[C@@H](NC(=O)[C@H](N)c3ccc(O)cc3)[C@H]2SC1 [Cefadroxil, cefadroxil, reference compound]
[1]
  MIC: > 125 µg/mL
Proteus morganii A15153
  MIC: > 125 µg/mL
Escherichia coli A15119; [19]
  MIC: 16 µg/mL (≈ 44 µM)
[2]; known parent compound
  lipid solubility: lipid-insoluble
[2]; pH of blood plasma
  ionization and water solubility: ionized, water-soluble
[3]
  MIC: 1 µg/mL (≈ 2.75 µM)
[4]; [20]
  MIC: 0.25 µg/mL (≈ 0.688 µM)
[5]; [21]
  MIC: 32 µg/mL (≈ 88.1 µM)
[6]
  MIC: > 125 µg/mL
[7]; [22]
  MIC: 2 µg/mL
[7]; [23]
  MIC: 1 µg/mL (≈ 2.75 µM)
[8]
  MIC: > 125 µg/mL
Proteus mirabilis A9900; [24]
  MIC: 8 µg/mL (≈ 22 µM)
[9]
  MIC: > 125 µg/mL

## CC1=C(C(=O)O)N2C(=O)[C@@H](NC(=O)[C@H](N)c3ccccc3)[C@H]2SC1 [Cephalexin, cephalexin, reference compound]
[1]
  MIC: > 125 µg/mL
Proteus morganii A15153
  MIC: > 125 µg/mL
Escherichia coli A15119; Escherichia coli, A15119, read-out: Minimum Inhibitory Concentration
  MIC: 8 µg/mL (≈ 23 µM)
[4]; Streptococcus pyogenes, A9604, read-out: Minimum Inhibitory Concentration
  MIC: 0.5 µg/mL (≈ 1.44 µM)
[5]; Klebsiella pneumoniae, A15130, read-out: Minimum Inhibitory Concentration
  MIC: 16 µg/mL (≈ 46.1 µM)
[6]
  MIC: > 125 µg/mL
[7]; A9537, read-out: Minimum Inhibitory Concentration, Staph aureus + 50% serum, A9537, overnight, Nutrient Broth, 37° C.
  MIC: 2 µg/mL
[7]; A9537, read-out: Minimum Inhibitory Concentration, Staphylococcus aureus A9537, overnight, Nutrient Broth, 37° C.
  MIC: 1 µg/mL (≈ 2.88 µM)
[8]
  MIC: > 125 µg/mL
Proteus mirabilis A9900; Proteus mirabilis, A9900, read-out: Minimum Inhibitory Concentration
  MIC: 4 µg/mL (≈ 11.5 µM)
[9]
  MIC: > 125 µg/mL

## COCOC(=O)C1=C(C)CSC2C(N3C(=O)[C@@H](c4ccc(O)cc4)NC3(C)C)C(=O)N12 (stereo partly drawn) [Methoxymethyl Ester of Hetacefadroxil]
[1]
  MIC: > 125 µg/mL
Proteus morganii A15153
  MIC: 125 µg/mL (≈ 279 µM)
Escherichia coli A15119; [19]
  MIC: 32 µg/mL (≈ 71.5 µM)
[3]
  MIC: 1 µg/mL (≈ 2.23 µM)
[4]; [20]
  MIC: 0.25 µg/mL (≈ 0.559 µM)
[5]; [21]
  MIC: 63 µg/mL (≈ 141 µM)
[6]
  MIC: > 125 µg/mL
[7]; [22]
  MIC: 2 µg/mL
[7]; [23]
  MIC: 1 µg/mL (≈ 2.23 µM)
[8]
  MIC: 125 µg/mL (≈ 279 µM)
Proteus mirabilis A9900; [24]
  MIC: 8 µg/mL (≈ 17.9 µM)
[9]
  MIC: > 125 µg/mL

## COCOC(=O)C1=C(C)CSC2C(N3C(=O)[C@@H](c4ccccc4)NC3(C)C)C(=O)N12 (stereo partly drawn) [Methoxymethyl Ester of Hetacephalexin]
In vivo [10]
  Tmax: ~15 min
  Kp at 0.5 h: 0.042
  Kp at 1 h: 0.047
  Kp at 2 h: 0.046
  Kp at […]: 0.056
In vivo [10]; mean
  Kp at 0.5 h: 0.047
  Kp at 1 h: 0.051
  Kp at 2 h: 0.035
  Kp at […]: 0.058
In vivo [10]; brain peak as percent of plasma level
  Kp: ~0.06
[1]
  MIC: 125 µg/mL (≈ 290 µM)
[11]
  CHCl3 extractability / partition into CHCl3: all of the antibiotic activity was CHCl3 extractable
Proteus morganii A15153
  MIC: 125 µg/mL (≈ 290 µM)
Escherichia coli A15119; [19]
  MIC: 8 µg/mL (≈ 18.5 µM)
[3]
  MIC: 1 µg/mL (≈ 2.32 µM)
In vivo [12]
  concentration at 0.5 h: 23000 ng/g
  concentration at 1 h: 22000 ng/g
  concentration at 2 h: 4100 ng/g
In vivo [12]; mean
  concentration at 0.5 h: 27000 ng/g
  concentration at 1 h: 22300 ng/g
  concentration at 2 h: 4700 ng/g
[4]; [20]
  MIC: 0.25 µg/mL (≈ 0.579 µM)
[13]
  penetration of tissue cell membranes and blood-brain barrier compared with cephalexin: more readily penetrates tissue cell membranes and crosses the blood-brain barrier
[5]; [21]
  MIC: 16 µg/mL (≈ 37.1 µM)
[6]
  MIC: > 125 µg/mL
[7]; [22]
  MIC: 2 µg/mL
[7]; [23]
  MIC: 1 µg/mL (≈ 2.32 µM)
In vivo [14]
  concentration at 0.5 h: 1700 ng/g
  concentration at 1 h: 1700 ng/g
  concentration at 2 h: 500 ng/g
In vivo [14]; mean
  concentration at 0.5 h: 2200 ng/g
  concentration at 1 h: 1800 ng/g
  concentration at 2 h: 500 ng/g
[15]; 15 min
  Lung to Plasma Ratio × 100, mean: 82.6
[15]; 30 min
  Lung to Plasma Ratio × 100, mean: 60.0
[15]; 60 min
  Lung to Plasma Ratio × 100, mean: 67.2
[15]; 120 min
  Lung to Plasma Ratio × 100, mean: 33.0
[8]
  MIC: 125 µg/mL (≈ 290 µM)
In vivo [16]
  Kp: ~0.83
  Tmax: ~15 min
In vivo [17]
  Tmax: ≤ 15 min
  concentration at 0.5 h: 40000 ng/mL
  concentration at 1 h: 36000 ng/mL
  concentration at 2 h: 11000 ng/mL
In vivo [17]; mean
  concentration at 0.5 h: 45500 ng/mL
  concentration at 1 h: 34200 ng/mL
  concentration at 2 h: 14500 ng/mL
[18]
  absorption: rapidly absorbed
Proteus mirabilis A9900; [24]
  MIC: 8 µg/mL (≈ 18.5 µM)
[9]
  MIC: > 125 µg/mL
